We go through 39 compounds from patent publication US9695171B2, “3,4-disubstituted-1 H-pyrrolo[2,3-b]pyridines and 4,5-disubstituted-7H-pyrrolo[2,3-c]pyridazines as LRRK2 inhibitors” (Pfizer Inc., priority 2013, dated 2017).

The test concerns the target T1, GST-tagged truncated LRRK2 (Homo sapiens, UniProt Q5S007).
T1 construct: GST-tagged truncated LRRK2 from Invitrogen (Cat # PV4874); GST; purchased Invitrogen PV4874
Put plainly: LRRK2 kinase assay (Lantha Screen). In kind it is biochemical. The settings on record: 1 mM ATP (head); a = geometric mean of >=4 determinations, b = single determination; read-out: LRRK2 LANTHA EC50 at 1 mM ATP; Geometric mean of 2-3 determinations unless otherwise indicated. As to the method:
LRRK2 kinase activity was measured using Lantha Screen technology from Invitrogen. GST-tagged truncated LRRK2 from Invitrogen (Cat # PV4874) was incubated with a fluorescein-labeled peptide substrate based upon ezrin/radixin/moesin (ERM), also known as LRRKtide (Invitrogen cat # PR8976A), in the presence of a dose response of compound. Upon completion, the assay was stopped and detected with a terbium labeled anti-phospho-ERM antibody (Invitrogen, cat # PR8975A). […] The compound dose response was prepared by diluting compound to a top concentration of 3.16 mM in 100% DMSO and serial diluted by half-log in DMSO 11 times. Aliquots (3.5 μL) of the 100% DMSO dose response were mixed with 46.5 μL water then 1 μL of this mixture was added to the 3 μL substrate mix in the 384-well plate. The kinase reaction was started with 3 μL of a working solution of LRRK2 enzyme at a concentration of 4 μg/mL. […] The reaction was allowed to progress at room temperature for two hours and then stopped with the addition of 7 μL of detection buffer (20 mM Tris pH 7.6, 0.01% NP-40, 0.02% NaN3, 6 mM EDTA with 2 nM terbium labeled anti-phospho-ERM). After an incubation of 1 hour at room temperature, the plate was read on an Envision with an excitation wavelength of 340 nm and a reading emission at both 520 nm and 495 nm. The ratio of the 520 nm and 495 nm emission was used to analyze the data.

pEC50: −log10 of the molar value.

T1 sequence (Q5S007 970-2527 limits assumed): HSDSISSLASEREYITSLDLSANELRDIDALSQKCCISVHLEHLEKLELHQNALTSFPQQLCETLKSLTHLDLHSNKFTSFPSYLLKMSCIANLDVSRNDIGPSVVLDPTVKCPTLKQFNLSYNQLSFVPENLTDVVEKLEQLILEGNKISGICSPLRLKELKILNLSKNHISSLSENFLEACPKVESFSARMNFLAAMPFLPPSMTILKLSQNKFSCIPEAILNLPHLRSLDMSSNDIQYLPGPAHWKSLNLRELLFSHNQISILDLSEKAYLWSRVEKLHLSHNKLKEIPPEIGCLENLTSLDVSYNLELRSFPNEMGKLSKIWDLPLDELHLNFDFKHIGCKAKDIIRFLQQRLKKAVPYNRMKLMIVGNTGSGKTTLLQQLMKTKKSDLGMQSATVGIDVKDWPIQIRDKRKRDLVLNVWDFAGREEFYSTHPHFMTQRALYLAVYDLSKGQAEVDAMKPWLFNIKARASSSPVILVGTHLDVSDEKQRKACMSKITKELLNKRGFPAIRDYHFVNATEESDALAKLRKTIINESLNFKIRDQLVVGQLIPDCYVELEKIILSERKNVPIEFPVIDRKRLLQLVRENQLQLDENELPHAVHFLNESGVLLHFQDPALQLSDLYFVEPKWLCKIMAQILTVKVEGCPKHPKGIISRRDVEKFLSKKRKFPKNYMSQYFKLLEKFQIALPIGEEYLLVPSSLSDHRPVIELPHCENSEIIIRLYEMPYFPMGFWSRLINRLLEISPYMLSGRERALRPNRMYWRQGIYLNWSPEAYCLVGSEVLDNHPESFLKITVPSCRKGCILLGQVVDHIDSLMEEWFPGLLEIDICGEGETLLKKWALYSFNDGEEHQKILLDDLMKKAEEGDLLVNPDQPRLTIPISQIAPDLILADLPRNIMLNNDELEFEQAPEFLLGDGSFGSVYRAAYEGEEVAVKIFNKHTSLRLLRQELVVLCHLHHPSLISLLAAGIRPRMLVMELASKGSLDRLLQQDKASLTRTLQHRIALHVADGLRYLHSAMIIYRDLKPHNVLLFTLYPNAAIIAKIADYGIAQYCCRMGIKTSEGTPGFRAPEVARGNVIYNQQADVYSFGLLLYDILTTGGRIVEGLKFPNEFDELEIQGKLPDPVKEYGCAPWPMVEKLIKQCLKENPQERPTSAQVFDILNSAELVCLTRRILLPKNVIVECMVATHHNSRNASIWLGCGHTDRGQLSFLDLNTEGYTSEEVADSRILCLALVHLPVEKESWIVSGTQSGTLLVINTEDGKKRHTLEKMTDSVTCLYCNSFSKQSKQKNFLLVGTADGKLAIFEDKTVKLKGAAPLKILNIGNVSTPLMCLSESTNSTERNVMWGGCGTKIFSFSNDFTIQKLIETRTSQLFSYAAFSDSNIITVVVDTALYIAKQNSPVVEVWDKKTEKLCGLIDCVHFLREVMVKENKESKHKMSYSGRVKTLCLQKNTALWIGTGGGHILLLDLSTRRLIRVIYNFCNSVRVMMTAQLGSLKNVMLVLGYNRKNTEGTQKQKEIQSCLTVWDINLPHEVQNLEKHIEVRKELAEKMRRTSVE

One may read the pEC50 as the EC50 on a negative log10 scale, so that one unit is a factor of ten. For `N#Cc1cccc(-c2c[nH]c3nccc(N4CCOCC4)c23)c1` [Example 1, 3-[4-(Morpholin-4-yl)-1H-pyrrolo[2,3-b]pyridin-3-yl]benzonitrile], the pEC50 is 8.37. The same measure for `N#Cc1cccc(-c2c[nH]c3nccc(N4CCOCC4)c23)c1F` [Example 2, 2-Fluoro-3-[4-(morpholin-4-yl)-1H-pyrrolo[2,3-b]pyridin-3-yl]benzonitrile]: 8.29. Then `c1cnn2c(-c3c[nH]c4nccc(N5CCOCC5)c34)cnc2c1` [Example 3, 3-[4-(Morpholin-4-yl)-1H-pyrrolo[2,3-b]pyridin-3-yl]imidazo[1,2-b]pyridazine], with 7.85; and `Cn1cc(-c2c[nH]c3nccc(N4CCOCC4)c23)cc1C#N` [Example 4, 1-Methyl-4-[4-(morpholin-4-yl)-1H-pyrrolo[2,3-b]pyridin-3-yl]-1H-pyrrole-2-carbonitrile], with 8.55; and `Cn1cc(-c2c[nH]c3nccc(N4CCOCC4)c23)nc1C#N` [Example 5, 1-Methyl-4-[4-(morpholin-4-yl)-1H-pyrrolo[2,3-b]pyridin-3-yl]-1H-imidazole-2-carbonitrile], with 8.28.

`Cn1cc(-c2c[nH]c3nncc(N4CCOCC4)c23)cc1C#N` [Example 6, 1-Methyl-4-[4-(morpholin-4-yl)-7H-pyrrolo[2,3-c]pyridazin-5-yl]-1H-pyrrole-2-carbonitrile]: the pEC50 is 7.85.

Regarding `Cn1cc(-c2c(Cl)[nH]c3nccc(N4CCOCC4)c23)cc1C#N` [Example 7, 4-[2-Chloro-4-(morpholin-4-yl)-1H-pyrrolo[2,3-b]pyridin-3-yl]-1-methyl-1H-pyrrole-2-carbonitrile], the pEC50 is 8.89. In the case of `Cc1[nH]c2nccc(N3CCOCC3)c2c1-c1cccc(C#N)c1` [Example 8, 3-[2-Methyl-4-(morpholin-4-yl)-1H-pyrrolo[2,3-b]pyridin-3-yl]benzonitrile], the pEC50 is 7.66. The same measure for `Cc1cc(N2CCOCC2)c2c(-c3cccc(C#N)c3)c[nH]c2n1` [Example 9, 3-[6-Methyl-4-(morpholin-4-yl)-1H-pyrrolo[2,3-b]pyridin-3-yl]benzonitrile]: 6.68. The same measure for `N#Cc1cccc(-c2c[nH]c3ncc(CO)c(N4CCOCC4)c23)c1` [Example 10, 3-[5-(Hydroxymethyl)-4-(morpholin-4-yl)-1H-pyrrolo[2,3-b]pyridin-3-yl]benzonitrile]: 7.10; for `N#Cc1cccc(-c2c[nH]c3ncc(C#N)c(N4CCOCC4)c23)c1` [Example 11, 3-(3-Cyanophenyl)-4-(morpholin-4-yl)-1H-pyrrolo[2,3-b]pyridine-5-carbonitrile]: 7.62. Turning to `Cn1cc(-c2c[nH]c3nccc(C4=CCOCC4)c23)cn1` [Example 12, 4-(3,6-Dihydro-2H-pyran-4-yl)-3-(1-methyl-1H-pyrazol-4-yl)-1H-pyrrolo[2,3-b]pyridine], the negative logarithm of the EC50 (pEC50) is 7.22. Then `Cn1cc(-c2c[nH]c3nccc(N4CCOCC4)c23)cn1` [Example 13, 3-(1-methyl-1H-pyrazol-4-yl)-4-(morpholin-4-yl)-1H-pyrrolo[2,3-b]pyridine], with 7.58; and `CN(C)c1c(C#N)cnc2[nH]cc(-c3cccc(C#N)c3F)c12` [Example 14, 3-(3-cyano-2-fluorophenyl)-4-(dimethylamino)-1H-pyrrolo[2,3-b]pyridine-5-carbonitrile], with 7.59. Then `COc1ccc(F)cc1-c1c[nH]c2nccc(N3CCOCC3)c12` [Example 15, 3-(5-fluoro-2-methoxyphenyl)-4-(morpholin-4-yl)-1H-pyrrolo[2,3-b]pyridine], with 7.03; and `COc1cc(F)cc(-c2c[nH]c3nccc(N4CCOCC4)c23)c1` [Example 16, 3-(3-fluoro-5-methoxyphenyl)-4-(morpholin-4-yl)-1H-pyrrolo[2,3-b]pyridine], with 7.35; and `Cc1[nH]c2nccc(N3CCOCC3)c2c1-c1cnn(C)c1` [Example 17, 2-methyl-3-(1-methyl-1H-pyrazol-4-yl)-4-(morpholin-4-yl)-1H-pyrrolo[2,3-b]pyridine], with 6.86. The same measure for `Cc1cc(N2CCOCC2)c2c(-c3cccc(C#N)c3F)c[nH]c2n1` [Example 18, 2-fluoro-3-[6-methyl-4-(morpholin-4-yl)-1H-pyrrolo[2,3-b]pyridin-3-yl]benzonitrile]: 7.02. With `N#Cc1cccc(-c2c[nH]c3nccc(N4CCOCC4)c23)n1` [Example 19, 6-[4-(morpholin-4-yl)-1H-pyrrolo[2,3-b]pyridin-3-yl]pyridine-2-carbonitrile], the pEC50 is 7.32. In the case of `Clc1cccc(-c2c[nH]c3nccc(N4CCOCC4)c23)c1` [Example 20, 3-(3-chlorophenyl)-4-(morpholin-4-yl)-1H-pyrrolo[2,3-b]pyridine], the pEC50 was 7.27.

`Fc1cc(Cl)cc(-c2c[nH]c3nccc(N4CCOCC4)c23)c1` [Example 21, 3-(3-chloro-5-fluorophenyl)-4-(morpholin-4-yl)-1H-pyrrolo[2,3-b]pyridine]: the pEC50 is 7.29. Then `Fc1ccc(F)c(-c2c[nH]c3nccc(N4CCOCC4)c23)c1` [Example 22, 3-(2,5-difluorophenyl)-4-(morpholin-4-yl)-1H-pyrrolo[2,3-b]pyridine], with 6.89; and `Clc1ccccc1-c1c[nH]c2nccc(N3CCOCC3)c12` [Example 23, 3-(2-chlorophenyl)-4-(morpholin-4-yl)-1H-pyrrolo[2,3-b]pyridine], with 6.84; and `Fc1cccc(-c2c[nH]c3nccc(N4CCOCC4)c23)c1F` [Example 24, 3-(2,3-difluorophenyl)-4-(morpholin-4-yl)-1H-pyrrolo[2,3-b]pyridine], with 7.77. Then `Fc1cccc(-c2c[nH]c3nccc(N4CCOCC4)c23)c1` [Example 25, 3-(3-fluorophenyl)-4-(morpholin-4-yl)-1H-pyrrolo[2,3-b]pyridine], with 7.46; and `Fc1ccccc1-c1c[nH]c2nccc(N3CCOCC3)c12` [Example 26, 3-(2-fluorophenyl)-4-(morpholin-4-yl)-1H-pyrrolo[2,3-b]pyridine], with 7.54. Then `Fc1ccc(Cl)cc1-c1c[nH]c2nccc(N3CCOCC3)c12` [Example 27, 3-(5-chloro-2-fluorophenyl)-4-(morpholin-4-yl)-1H-pyrrolo[2,3-b]pyridine], with 7.24.

For the compound `OCc1cccc(-c2c[nH]c3nccc(N4CCOCC4)c23)c1` [Example 28, {3-[4-(morpholin-4-yl)-1H-pyrrolo[2,3-b]pyridin-3-yl]phenyl}methanol], the pEC50 is 7.02. The same measure for `OCc1ccc(F)c(-c2c[nH]c3nccc(N4CCOCC4)c23)c1` [Example 29, {4-fluoro-3-[4-(morpholin-4-yl)-1H-pyrrolo[2,3-b]pyridin-3-yl]phenyl}methanol]: 7.14; for `Cc1nnc(-c2cccc(-c3c[nH]c4nccc(N5CCOCC5)c34)c2)o1` [Example 30, 3-[3-(5-methyl-1,3,4-oxadiazol-2-yl)phenyl]-4-(morpholin-4-yl)-1H-pyrrolo[2,3-b]pyridine]: 6.75. Then `COc1cccc(-c2c[nH]c3nccc(N4CCOCC4)c23)c1` [Example 31, 3-(3-methoxyphenyl)-4-(morpholin-4-yl)-1H-pyrrolo[2,3-b]pyridine], with 6.91; and `Fc1c(Cl)cccc1-c1c[nH]c2nccc(N3CCOCC3)c12` [Example 32, 3-(3-chloro-2-fluorophenyl)-4-(morpholin-4-yl)-1H-pyrrolo[2,3-b]pyridine], with 7.39.

On to `Fc1cc(F)c(F)c(-c2c[nH]c3nccc(N4CCOCC4)c23)c1` [Example 33, 4-(morpholin-4-yl)-3-(2,3,5-trifluorophenyl)-1H-pyrrolo[2,3-b]pyridine], for which the pEC50 is 7.16. The same measure for `Fc1cc(F)cc(-c2c[nH]c3nccc(N4CCOCC4)c23)c1` [Example 34, 3-(3,5-difluorophenyl)-4-(morpholin-4-yl)-1H-pyrrolo[2,3-b]pyridine]: 7.36; for `Clc1ncccc1-c1c[nH]c2nccc(N3CCOCC3)c12` [Example 35, 3-(2-chloropyridin-3-yl)-4-(morpholin-4-yl)-1H-pyrrolo[2,3-b]pyridine]: 6.96. The same measure for `c1ccc(-c2c[nH]c3nccc(N4CCOCC4)c23)cc1` [Example 36, 4-(morpholin-4-yl)-3-phenyl-1H-pyrrolo[2,3-b]pyridine]: 7.30; for `Fc1ccc(-c2c[nH]c3nccc(N4CCOCC4)c23)c(F)c1` [Example 37, 3-(2,4-difluorophenyl)-4-(morpholin-4-yl)-1H-pyrrolo[2,3-b]pyridine]: 6.83.

With `Cc1cc(F)cc(-c2c[nH]c3nccc(N4CCOCC4)c23)c1` [Example 38, 3-(3-fluoro-5-methylphenyl)-4-(morpholin-4-yl)-1H-pyrrolo[2,3-b]pyridine], the pEC50 is 7.64.

As for `N#Cc1cc(F)cc(-c2c[nH]c3nccc(N4CCOCC4)c23)c1` [Example 39, 3-fluoro-5-[4-(morpholin-4-yl)-1H-pyrrolo[2,3-b]pyridin-3-yl]benzonitrile], the pEC50 was 6.85.
